Laboratory results published in paper PMC10218234, “Design, Synthesis and Antitumor Activity of 1H-indazole-3-amine Derivatives” (International Journal of Molecular Sciences, 2023).
Where two headings read alike, the source gives them in different places.

Tests used:
K562 cells = assay: MTT anti-proliferative assay, K562; format: cell-based; details: Homo sapiens, read-out: IC50 ± SD, K562
Protocol: (§1) The antiproliferative activity of the target indazole derivatives was evaluated against a panel of human cancer cell lines (human chronic myeloid leukemia cell lines K562; human lung cancer cell lines A549; human prostate cancer cell lines PC-3; human hepatoma cell lines HepG-2) in vitro, and human embryonic kidney cell lines HEK-293 were used to evaluate the cytotoxicity of a normal cell with high activity derivatives by MTT assay. Moreover, 5-fluorouracil (5-Fu), a broad-spectrum drug antitumor drug with therapeutic effects on various cancers, was used as a positive control.
(§2) Lung (A549), chronic myeloid leukemia (K562), prostate (PC3), and live (Hep-G2) cells were purchased from the Cell Bank of the Chinese Academy of Sciences (Kunming, China). A549, K562, and PC-3 cells were cultured in RPMI-1640 medium and the liver cells Hep-G2 were cultured in MEM medium. All mediums were supplemented with 10% FBS, 100 μg/mL penicillin and 100 μg/mL streptomycin. All cells were cultivated in a 5% CO2 incubator at 37 °C.
(§3) To investigate the anticancer activity of indazole derivatives, A549, K562, PC3, and Hep-G2 cells were treated with targets compounds respectively for 48 h in a range of concentrations (from 0.625 to 10 μM) and subjected to a proliferation assay using the MTT assay. Exponentially growing cells were seeded at a density of 5000 cells per well in 96-well plates containing 100 μL of fresh growth medium. After allowing the cells to attach for 24 h, target compounds were added. After incubation for 48 h, viable cells were stained with MTT (0.5 mg/mL) for 4 h, and the produced formazan crystals were dissolved with 150 µL of dimethyl sulfoxide. Absorbance was measured at 490 nm using an automated microplate reader (Tecan, Infinite M200 Pro, Männedorf, Switzerland). The relative cell viability was calculated according to the following equation: Cell viability%=experimental OD value/control OD value×100%Cell inhibition%=control OD value−experimental OD value/control OD value×100%
(§4) Cell inhibition%=control OD value−experimental OD value/control OD value×100%

A549 cells = assay: MTT anti-proliferative assay, A549; format: cell-based; details: Homo sapiens, read-out: IC50 ± SD, A549
Protocol: as §1, §2, §3, §4

PC-3 cells = assay: MTT anti-proliferative assay, PC-3; format: cell-based; details: Homo sapiens, PC-3, 48 h
Protocol: as §1, §2
as §3, with “Exponentially” for “To investigate the anticancer activity of indazole derivatives, A549, K562, PC3, and Hep-G2 cells were treated with targets compounds respectively for 48 h in a range of concentrations (from 0.625 to 10 μM) and subjected to a proliferation assay using the MTT assay. Exponentially”
as §4

Hep-G2 cells = assay: MTT anti-proliferative assay, Hep-G2; format: cell-based; details: Homo sapiens, HepG2, 48 h, read-out: IC50 ± SD, Hep-G2
Protocol: as §1, §2, §3, §4

[1] = Table 1, read-out: IC50 ± SD, PC-3
[2] = Table 2, read-out: IC50 ± SD, PC-3

| IC50 (K562 cells; Table 1, 48 h) [µM] | IC50 (A549 cells; Table 1, 48 h) [µM] | IC50 (PC-3 cells; [1]) [µM] | IC50 (Hep-G2 cells; Table 1, 48 h) [µM] | melting point [°C] | IC50 (K562 cells; Table 2, 48 h) [µM] | IC50 (A549 cells; Table 2, 48 h) [µM] | IC50 (PC-3 cells; [2]) [µM] | IC50 (Hep-G2 cells; Table 2, 48 h) [µM] | Structure (SMILES) |
| --- | --- | --- | --- | --- | --- | --- | --- | --- | --- |
|  |  |  |  | 200 to 201 | 18.6 ± 2.14 | 19.9 ± 1.15 | 9.69 ± 0.26 | 1.69 ± 0.68 | COc1ccc(-c2ccc3[nH]nc(NC(=O)CN4CCN(c5ccc(Cl)c(Cl)c5)CC4)c3c2)cc1 [6b] |
|  |  |  |  | 188 to 189 | > 50 | 24 ± 2.92 | > 50 | 1.23 ± 0.39 | COc1ccc(-c2ccc3[nH]nc(NC(=O)CN4CCN(c5ccc(OC)cc5)CC4)c3c2)cc1 [6c] |
|  |  |  |  | 187 to 189 | 18.2 ± 2.91 | 17.6 ± 4.11 | 17.6 ± 1.4 | > 50 | COc1ccc(-c2ccc3[nH]nc(NC(=O)CN4CCN(c5ccc(C(F)(F)F)cc5)CC4)c3c2)cc1 [6d] |
|  |  |  |  | 140 to 141 | 8.85 ± 0.26 | 12.8 ± 0.78 | 7.15 ± 0.14 | > 50 | COc1ccc(-c2ccc3[nH]nc(NC(=O)CN4CCN(Cc5ccc(Cl)cc5)CC4)c3c2)cc1 [6e] |
|  |  |  |  |  | 11.9 ± 0.85 | > 50 | 41.7 ± 27.9 | 9.56 ± 0.84 | O=C(CN1CCN(c2ccc(Cl)c(Cl)c2)CC1)Nc1n[nH]c2ccc(-c3cc(F)cc(F)c3)cc12 [6f] |
|  |  |  |  | 170 to 171 | 6.61 ± 0.38 | 15.8 ± 2.98 | 6.81 ± 1.09 | 2.35 ± 0.96 | O=C(CN1CCN(c2ccc(C(F)(F)F)cc2)CC1)Nc1n[nH]c2ccc(-c3cc(F)cc(F)c3)cc12 [6g] |
|  |  |  |  |  | 13.2 ± 1.75 | 15.1 ± 1.36 | 8.63 ± 0.57 | 2.75 ± 0.78 | O=C(CN1CCN(c2ccc(F)cc2F)CC1)Nc1n[nH]c2ccc(-c3cc(F)cc(F)c3)cc12 [6h] |
|  |  |  |  | 184 to 186 | 13.2 ± 1.44 | 28.6 ± 2.52 | 12.8 ± 2.95 | 2.58 ± 0.42 | O=C(CN1CCN(c2ccc(Br)cc2)CC1)Nc1n[nH]c2ccc(-c3cc(F)cc(F)c3)cc12 [6i] |
|  |  |  |  | 179 to 181 | 7.78 ± 0.1 | 20.3 ± 1.24 | 7.58 ± 1.01 | 3.87 ± 0.47 | O=C(CN1CCN(c2ccc(Cl)cc2)CC1)Nc1n[nH]c2ccc(-c3cc(F)cc(F)c3)cc12 [6j] |
|  |  |  |  | 180 to 182 | 11.2 ± 0.56 | 7.83 ± 1.06 | 4.25 ± 0.13 | 1.61 ± 0.28 | O=C(CN1CCN(c2ccccc2)CC1)Nc1n[nH]c2ccc(-c3cc(F)cc(F)c3)cc12 [6k] |
|  |  |  |  | 200 to 201 | 14 ± 0.49 | 12.9 ± 0.21 | 2.89 ± 0.16 | 7.65 ± 3.34 | O=C(CN1CCN(c2ccncc2)CC1)Nc1n[nH]c2ccc(-c3cc(F)cc(F)c3)cc12 [6l] |
|  |  |  |  |  | 17.9 ± 3.14 | 22.6 ± 6.53 | 19.9 ± 2.71 | 1.51 ± 0.25 | O=C(CN1CCN(c2ccc(Cl)c(Cl)c2)CC1)Nc1n[nH]c2ccc(-c3ccc(Cl)c(F)c3)cc12 [6m] |
|  |  |  |  | 174 to 176 | 13.3 ± 1.4 | 18.7 ± 3.1 | 34.8 ± 4.37 | 4.76 ± 0.63 | COc1ccc(N2CCN(CC(=O)Nc3n[nH]c4ccc(-c5ccc(Cl)c(F)c5)cc34)CC2)cc1 [6n] |
|  |  |  |  | 163 to 165 | > 50 | 13.6 ± 0.53 | 32.1 ± 2.26 | 2.38 ± 0.37 | O=C(CN1CCN(c2ccccc2Cl)CC1)Nc1n[nH]c2ccc(-c3ccc(Cl)c(F)c3)cc12 [6p] |
|  |  |  |  | 160 to 162 | 5.61 ± 1.14 | 12.8 ± 2.66 | 10.7 ± 1.66 | 2.7 ± 0.47 | O=C(CN1CCN(c2ccc(F)cc2F)CC1)Nc1n[nH]c2ccc(-c3ccc(Cl)c(Cl)c3)cc12 [6q] |
|  |  |  |  |  | 10 ± 0.94 | 15.8 ± 1.38 | 27.9 ± 26.1 | > 50 | O=C(CN1CCN(c2ccc(Br)cc2)CC1)Nc1n[nH]c2ccc(-c3ccc(Cl)c(Cl)c3)cc12 [6r] |
|  |  |  |  | 179 to 182 | 10.8 ± 0.68 | 20.4 ± 8.08 | 20.3 ± 4.71 | 2.92 ± 1.41 | O=C(CN1CCN(c2ccc(Cl)cc2)CC1)Nc1n[nH]c2ccc(-c3ccc(Cl)c(Cl)c3)cc12 [6s] |
|  |  |  |  | 194 to 197 | 11.1 ± 0.69 | 40.9 ± 6.54 | 19 ± 0.58 | 1.98 ± 0.35 | N#Cc1ccc(N2CCN(CC(=O)Nc3n[nH]c4ccc(-c5ccc(Cl)c(Cl)c5)cc34)CC2)cc1 [6t] |
|  |  |  |  |  | 5.19 ± 0.29 | 8.21 ± 0.56 | 6.12 ± 0.1 | 5.62 ± 1.76 | O=C(CN1CCN(c2ccc(Cl)c(Cl)c2)CC1)Nc1n[nH]c2ccc(-c3cccc(F)c3)cc12 [compound 6a] |

The next lines start with the compound.

| Structure (SMILES) | IC50 (K562 cells; Table 1, 48 h) [µM] | IC50 (A549 cells; Table 1, 48 h) [µM] | IC50 (PC-3 cells; [1]) [µM] | IC50 (Hep-G2 cells; Table 1, 48 h) [µM] | melting point [°C] | IC50 (K562 cells; Table 2, 48 h) [µM] | IC50 (A549 cells; Table 2, 48 h) [µM] | IC50 (PC-3 cells; [2]) [µM] | IC50 (Hep-G2 cells; Table 2, 48 h) [µM] |
| --- | --- | --- | --- | --- | --- | --- | --- | --- | --- |
| O=C(CSc1ccc(F)cc1)Nc1n[nH]c2ccc(-c3cccc(F)c3)cc12 [5b] | 6.97 ± 0.99 | 5.25 ± 0.57 | 38.4 ± 24.1 | > 50 |  |  |  |  |  |
| O=C(CSc1ccc(Br)cc1)Nc1n[nH]c2ccc(-c3cccc(F)c3)cc12 [5c] | 9.33 ± 0.64 | 5.63 ± 0.59 | 60.7 ± 2.91 | 4.76 ± 0.63 |  |  |  |  |  |
| O=C(CSc1ccccc1Br)Nc1n[nH]c2ccc(-c3cccc(F)c3)cc12 [5d] | 27.2 ± 0.66 | 16.6 ± 3.22 | 19.7 ± 2.38 | 45.9 ± 2.24 |  |  |  |  |  |
| COc1ccc(SCC(=O)Nc2n[nH]c3ccc(-c4ccc(F)cc4)cc23)cc1 [5e] | > 50 | 7.23 ± 0.4 | 12.8 ± 3.09 | 8.2 ± 0.91 |  |  |  |  |  |
| COc1ccc(SCC(=O)Nc2n[nH]c3ccc(-c4ccc(OC(F)(F)F)cc4)cc23)cc1 [5f] | > 50 | 4.48 ± 0.24 | 12.5 ± 4.55 | > 50 | 215 to 216 |  |  |  |  |
| O=C(CSc1ccc(F)cc1)Nc1n[nH]c2ccc(-c3ccc(Cl)c(F)c3)cc12 [5g] | 10.3 ± 1.14 | 6.4 ± 0.26 | 18.6 ± 5.73 | 11.9 ± 0.72 | 178 to 200 |  |  |  |  |
| O=C(CSc1ccc(Br)cc1)Nc1n[nH]c2ccc(-c3ccc(Cl)c(F)c3)cc12 [5h] | 14.3 ± 2.13 | 9.26 ± 0.37 | 13 ± 7.53 | 11.3 ± 0.75 | 267 to 268 |  |  |  |  |
| O=C(CSc1ccc([N+](=O)[O-])cc1)Nc1n[nH]c2ccc(-c3ccc(Cl)c(F)c3)cc12 [5i] | 6.27 ± 1.22 | 4.43 ± 0.15 | 6.57 ± 1.1 | 5.5 ± 0.17 | 243 to 246 |  |  |  |  |
| COc1ccc(SCC(=O)Nc2n[nH]c3ccc(-c4cc(F)cc(F)c4)cc23)cc1 [5j] | 8.49 ± 1.87 | 3.99 ± 0.16 | 14.7 ± 4.55 | 5.36 ± 0.25 | 204 to 205 |  |  |  |  |
| O=C(CSc1ccccc1Br)Nc1n[nH]c2ccc(-c3cc(F)cc(F)c3)cc12 [5l] | 8.19 ± 1.43 | 14.1 ± 1.71 | > 50 | 14.9 ± 0.77 | 199 to 200 |  |  |  |  |
| O=C(CSc1ccc(Cl)cc1)Nc1n[nH]c2ccc(-c3cc(F)cc(F)c3)cc12 [5m] | 13.1 ± 0.46 | 20.2 ± 3.14 | > 50 | 35.6 ± 4.21 | 200 to 202 |  |  |  |  |
| O=C(CSc1cccc(Cl)c1)Nc1n[nH]c2ccc(-c3cc(F)cc(F)c3)cc12 [5n] | 7.25 ± 1.07 | 20 ± 1.19 | > 50 | 6.57 ± 0.13 | 193 to 194 |  |  |  |  |
| O=C(CSc1ccc([N+](=O)[O-])cc1)Nc1n[nH]c2ccc(-c3cc(F)cc(F)c3)cc12 [5o] | 8.09 ± 1.27 | 6.64 ± 0.47 | 12.5 ± 2.1 | 8.3 ± 0.56 |  |  |  |  |  |
| O=C(CSc1ccncc1)Nc1n[nH]c2ccc(-c3cc(F)cc(F)c3)cc12 [5p] | 15.42 ± 0.15 | 16 ± 0.37 | 22.5 ± 9.13 | 7.14 ± 0.33 |  |  |  |  |  |
| O=C(CSc1ncccn1)Nc1n[nH]c2ccc(-c3cc(F)cc(F)c3)cc12 [5q] | 14.3 ± 2.13 | 16.2 ± 1.46 | 7.81 ± 0.64 | 6.3 ± 0.03 |  |  |  |  |  |
| COc1ccc(SCC(=O)Nc2n[nH]c3ccc(-c4cccc(F)c4)cc23)cc1 [compound 5a] | 9.32 ± 0.59 | 4.66 ± 0.45 | 15.5 ± 1.33 | 12.7 ± 1.31 |  |  |  |  |  |
